These results are taken from ChEMBL document CHEMBL1201862, “PubChem BioAssay data set” (2004).

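Following 48 hours of exposure in 96-well plates, responses at five concentrations were used to interpolate endpoints linearly. At the GI50, growth is halved.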 Active and inactive are the calls of the source. Rule as the data show it: active = GI50 up to about 1.1 µM and inactive = higher. Where only a bound is given, the exact number is not on record here.

Test systems include HOP-62; U-251; LOX IMVI; DMS-114; ACHN; SK-MEL-2; M14; HOP-92; UACC-62; OVCAR-4; SK-MEL-28; SNB-19; SK-MEL-5; UO-31; EKVX; SW-620; Malme-3M; HCC 2998.
Holding throughout (assay): NCI-60 cell line screen, 48 h

`COc1ccc(C(=O)O)c(Br)c1OCc1ccccc1`: the GI50 in the test on HOP-62, in the test with U-251, in the test on LOX IMVI, in the test with DMS-114, with ACHN and in the test with SK-MEL-2 was > 100 µM (inactive) each time. Moreover, the GI50 with M14, in the test with HOP-92, in the test with UACC-62, with OVCAR-4, in the test on SK-MEL-28 and in the test with SNB-19 was > 100 µM (inactive) each time. The GI50 in the test on SK-MEL-5 was > 100 µM (inactive); with UO-31, 88.3 µM (inactive); in the test on EKVX, > 100 µM (inactive); in the test on SW-620 it was > 100 µM (inactive).
For `CCc1cccc(C)c1NC(=O)CCc1nnc2s/c(=C\c3cccc4ccccc34)c(=O)n12`, the GI50 in the test on Malme-3M is > 100 µM (inactive); with HOP-62, > 100 µM (inactive); in the test on U-251, > 100 µM (inactive); with LOX IMVI, 80.7 µM (inactive); with DMS-114, 36 µM (inactive); in the test with ACHN it was > 100 µM (inactive). The GI50 with SK-MEL-2 is > 100 µM (inactive); with M14, 45.6 µM (inactive); in the test on HOP-92, > 100 µM (inactive); in the test with UACC-62 it was > 100 µM (inactive); in the test on OVCAR-4 it was > 100 µM (inactive); with HCC 2998 it was > 100 µM (inactive). In addition, the GI50 with SK-MEL-28, in the test with SNB-19, in the test with SK-MEL-5, in the test with UO-31 and in the test with SW-620 was > 100 µM (inactive) each time.
Consider `C/C(=N\N(C)C)C(CN(C)C)C(c1ccccc1)c1c(O)c2ccccc2oc1=O` (stereo not drawn), for which the GI50 in the test on Malme-3M, with U-251, in the test with LOX IMVI, in the test on DMS-114, in the test on ACHN and in the test with SK-MEL-2 was > 100 µM (inactive) in each case. Moreover, the GI50 was > 100 µM (inactive) with M14; 70.5 µM (inactive) with HOP-92; > 100 µM (inactive) with UACC-62; > 100 µM (inactive) with OVCAR-4; > 100 µM (inactive) in the test on HCC 2998; > 100 µM (inactive) in the test on SK-MEL-28. The GI50 is > 100 µM (inactive) in the test on SNB-19, > 100 µM (inactive) in the test on SK-MEL-5, 68.7 µM (inactive) with EKVX and > 100 µM (inactive) with SW-620.
As to `O=C(Nc1cccc([N+](=O)[O-])c1)C(=O)C(C(=O)c1ccccc1-c1ccccc1)C1OC(=O)c2ccccc21` (stereo not drawn), the GI50 in the test with Malme-3M is 13.6 µM (inactive); with HOP-62 it was 16.6 µM (inactive); in the test on U-251 it was 13.4 µM (inactive); in the test with LOX IMVI it was 17 µM (inactive); in the test on DMS-114, 14.5 µM (inactive); in the test on ACHN, 35.6 µM (inactive). Moreover, the GI50 with SK-MEL-2 was 17.9 µM (inactive); in the test on M14 it was 17.8 µM (inactive); with HOP-92, 13.4 µM (inactive); in the test with UACC-62 it was 19.5 µM (inactive); with HCC 2998, 16.2 µM (inactive); in the test with SK-MEL-28, 23.5 µM (inactive). In addition, the GI50 with SK-MEL-5 was 16.2 µM (inactive); with UO-31, 20.2 µM (inactive); in the test on EKVX it was 25.6 µM (inactive); in the test on SW-620, 27.2 µM (inactive).
For `FC1OC2OC1C(OCc1ccccc1)C(OCc1ccccc1)C2OCc1ccccc1` (stereo not drawn), the GI50 was 48.3 µM (inactive) in the test on Malme-3M; 88.3 µM (inactive) in the test with U-251; 43.8 µM (inactive) in the test on LOX IMVI; 29.5 µM (inactive) in the test on DMS-114; 71.8 µM (inactive) in the test on SK-MEL-2; 28.1 µM (inactive) in the test with M14. Moreover, the GI50 in the test on HOP-92 is 15.3 µM (inactive); in the test on UACC-62 it was 30.1 µM (inactive); in the test with OVCAR-4, 34.1 µM (inactive); in the test on SK-MEL-28, 33.4 µM (inactive); with SNB-19, 84.9 µM (inactive); in the test with SK-MEL-5, 45.6 µM (inactive). In addition, the results for the GI50 with UO-31, in the test on EKVX and in the test with SW-620 were 36.1 µM (inactive), 87.7 µM (inactive) and 40.6 µM (inactive), respectively.
`COc1cc2c(c3c1C=CCO3)C(=O)c1ccccc1C2=O`: the GI50 is > 100 µM (inactive) in the test on Malme-3M; 41.3 µM (inactive) in the test with HOP-62; 30.8 µM (inactive) in the test with U-251; 28.6 µM (inactive) in the test on LOX IMVI; 53.1 µM (inactive) in the test on DMS-114; 34.2 µM (inactive) in the test with ACHN. Besides, the GI50 was > 100 µM (inactive) in the test on SK-MEL-2; 82 µM (inactive) in the test with M14; > 100 µM (inactive) in the test with HOP-92; 47.4 µM (inactive) in the test with UACC-62; 50.2 µM (inactive) in the test on HCC 2998; > 100 µM (inactive) in the test on SK-MEL-28. Also, the GI50 in the test on SNB-19 is 45.3 µM (inactive); in the test with SK-MEL-5, 24.7 µM (inactive); in the test with UO-31 it was 29.5 µM (inactive); in the test with EKVX, > 100 µM (inactive); with SW-620, 30.4 µM (inactive).
With `COC1CC(OS(=O)(=O)c2ccc(C)cc2)C(OS(=O)(=O)c2ccc(C)cc2)C(COS(=O)(=O)c2ccc(C)cc2)O1` (stereo not drawn), the GI50 was 2.39 µM (inactive) in the test with Malme-3M; 2.18 µM (inactive) with HOP-62; 3.01 µM (inactive) with U-251; 2.92 µM (inactive) with DMS-114; 2.9 µM (inactive) with ACHN; 6.85 µM (inactive) with SK-MEL-2. The GI50 in the test on M14 is 5.22 µM (inactive); in the test with UACC-62, 5.61 µM (inactive); with OVCAR-4 it was 0.336 µM (active); in the test on HCC 2998, 12.8 µM (inactive); in the test on SK-MEL-28, 2.98 µM (inactive); with SNB-19 it was 2.22 µM (inactive). Besides, the GI50 was 4.85 µM (inactive) in the test with SK-MEL-5, 3.76 µM (inactive) in the test with UO-31, 11.2 µM (inactive) in the test on EKVX and 15.6 µM (inactive) in the test on SW-620.
`CC(=O)Oc1c(C)n(CCCl)ccc1=O`: the GI50 is > 100 µM (inactive) in the test with Malme-3M; > 100 µM (inactive) in the test with HOP-62; > 100 µM (inactive) with U-251; > 100 µM (inactive) in the test on LOX IMVI; > 100 µM (inactive) in the test with DMS-114; 69.3 µM (inactive) with ACHN. Moreover, the GI50 in the test with SK-MEL-2, with M14, in the test with UACC-62, in the test with OVCAR-4, in the test with SK-MEL-28 and in the test on SNB-19 was > 100 µM (inactive) throughout. Moreover, the GI50 with SK-MEL-5 is > 100 µM (inactive); with UO-31, 59.2 µM (inactive); with EKVX it was > 100 µM (inactive).
For the molecule `COC(=O)C(C#CCCCCC#CC(NC(=O)OCc1ccccc1)(C(=O)OC)C(F)(F)F)(NC(=O)OCc1ccccc1)C(F)(F)F` (stereo not drawn), the GI50 in the test on Malme-3M is > 100 µM (inactive); in the test with HOP-62, > 100 µM (inactive); in the test with U-251, > 100 µM (inactive); in the test on LOX IMVI, > 100 µM (inactive); in the test on DMS-114, 28.1 µM (inactive); with ACHN it was > 100 µM (inactive). Moreover, the GI50 with M14, in the test with HOP-92, in the test on UACC-62, with OVCAR-4, in the test with HCC 2998 and in the test on SK-MEL-28 was > 100 µM (inactive) throughout. Moreover, the GI50 in the test on SNB-19 was > 100 µM (inactive); in the test on SK-MEL-5, > 100 µM (inactive); in the test on UO-31, 7.45 µM (inactive); in the test with EKVX, > 100 µM (inactive); in the test with SW-620, > 100 µM (inactive).
As for `CC1=CC(/C=C(\C)CCCc2ccoc2)C2(OC(=O)C(C)=C2O)[C@H]2C1CC[C@@H]2C` (stereo partly drawn), the GI50 in the test with Malme-3M was 26.6 µM (inactive); with U-251 it was 25 µM (inactive); in the test on LOX IMVI it was 21.8 µM (inactive); in the test on DMS-114 it was 22.1 µM (inactive); in the test with ACHN it was 19.8 µM (inactive); in the test with M14 it was 23.1 µM (inactive). The GI50 in the test with HOP-92 is 17.9 µM (inactive); in the test with UACC-62, 14.4 µM (inactive); in the test with HCC 2998, 29.9 µM (inactive); with SK-MEL-28, 27.6 µM (inactive); in the test with SNB-19 it was 11.9 µM (inactive); in the test with SK-MEL-5, 20.3 µM (inactive). Moreover, the figures for the GI50 in the test with UO-31, in the test on EKVX and in the test on SW-620 were 16.5 µM (inactive), 31.7 µM (inactive) and 33.6 µM (inactive), respectively.
Take `Cc1ccc(C[P+]2(c3ccccc3)CCCCC2)cc1.[O-][Cl+3]([O-])([O-])[O-]`: the GI50 is 25.5 µM (inactive) with Malme-3M; 99.8 µM (inactive) in the test on HOP-62; 12.5 µM (inactive) in the test on U-251; 26.2 µM (inactive) with LOX IMVI; 14.2 µM (inactive) with DMS-114; 81.7 µM (inactive) in the test on ACHN. Besides, the GI50 is 30.9 µM (inactive) with SK-MEL-2; 25.8 µM (inactive) in the test with M14; 23 µM (inactive) in the test with UACC-62; 41.4 µM (inactive) with OVCAR-4; 21 µM (inactive) in the test with HCC 2998; 27.7 µM (inactive) in the test with SK-MEL-28. In addition, the GI50 in the test with SNB-19 was 32.3 µM (inactive); in the test on SK-MEL-5, 10.6 µM (inactive); with UO-31, > 100 µM (inactive); in the test with EKVX, 43.9 µM (inactive); with SW-620, 33.3 µM (inactive).
In the case of `CC(C#N)c1cn(S(=O)(=O)c2ccccc2)c2ccccc12` (stereo not drawn), the GI50 is 35.7 µM (inactive) in the test on Malme-3M; 37.5 µM (inactive) in the test on HOP-62; > 100 µM (inactive) in the test with U-251; 46.5 µM (inactive) with DMS-114; 33.3 µM (inactive) with ACHN; 37.1 µM (inactive) with SK-MEL-2. The GI50 with M14 is 33.7 µM (inactive); in the test with HOP-92 it was 12.4 µM (inactive); with UACC-62, 55.1 µM (inactive); with OVCAR-4, 34 µM (inactive); in the test on HCC 2998, 76.7 µM (inactive); in the test with SK-MEL-28 it was 60.7 µM (inactive). In addition, the GI50 is 42.9 µM (inactive) with SNB-19, 16.2 µM (inactive) with SK-MEL-5, 15.8 µM (inactive) in the test on UO-31 and > 100 µM (inactive) in the test with SW-620.
